Paper PMC10688702, “The indole motif is essential for the antitrypanosomal activity of N^5-substituted paullones” (PLOS ONE, 2023)
Counter-ions that a name gives are not always drawn.

Experiments:
[1] = biological target: trypanothione synthetase of L. infantum (LiTryS) (Leishmania infantum, UniProt A4I2Z3); test: TryS activity screening assay on recombinant LiTryS; assay type: biochemical; conditions: read-out: LiTryS activity [% at 30 μM]
Protocol: TryS from different trypanosomatids was produced in recombinant form with an N-terminal His-tag. The constructs pET-15b TbTryS and pET-28c(+)LiTryS were used to express TryS of T. b. brucei 427 (MITat1.4, GenBank accession protein id CAC87573.1), and L. infantum JPCM5 (GenBank accession protein id CAM69145.1). E. coli strain BL21 (DE3) served as the expression host. For TbTryS, the cells were cultured in a medium based in Terrific Broth and induction with isopropyl 1-thio-β-D-galactopyranoside (IPTG), while for LiTryS, the cells were cultured in ZYM-5052 auto-induction medium. For a detailed description of the expression, see Benítez et al.. The purification was performed by immobilised metal affinity chromatography in a HisTrap Fast Flow column (GE Healthcare) followed by size exclusion chromatography. […] The fractions containing recombinant TryS with ≥95% purity were pooled and concentrated to >10 mg protein/mL using a 10 kDa cut-off Amicon filter (Millipore, Billerica, CA). Glycerol was added at a final concentration of 40% (v/v). The samples were stored at -80°C. Enzyme purity and activity were assessed by SDS-PAGE (12%) under reducing conditions and by the end-point TryS assay (see TryS activity screening assay), respectively. Protein concentration was determined using the bicinchoninic acid assay with bovine serum albumin as standard. The protocols yielded 25–30 mg TbTryS or LiTryS per litre of culture medium and homogeneous specific activity.
For all TryS, ATP was used at 150 μM because of a high background signal at higher concentrations and Spd fixed at 2 mM, in agreement with the intracellular levels calculated from data reported in the literature for trypanosomatids. GSH was adjusted to 0.05 and 0.25 mM for TbTryS and LiTryS, respectively, to avoid substrate inhibition or to approach physiological concentrations. […] Microtiter plate wells were loaded with 5 μL of the test compound, DMSO (reaction control) or a TryS specific inhibitor (inhibition control) and 40 μL of MM solution. The reactions were then started by adding 5 μL of TryS (2 and 3*10^−5 μmol*min^-1*mL^-1 for LiTryS and TbTryS, respectively) and stopped after 15 min with 200 μL BIOMOL® GREEN reagent (Enzo Life Sciences). The compounds used as inhibition control were added at concentrations that inhibited 50% TryS activity: 30 μM and 150 nM MOL2008 for TbTryS and LiTryS, respectively. Blanks were prepared for each condition by adding 5 μL of screening reaction buffer instead of the enzyme. The TryS activity is calculated as follows: TrySactivity%=A650nmCi-A650nmCiB/A650nmE-A650nmEB*100%
A650 nm Ci is the mean absorbance at 650 nm for the reaction test with compound I (Ci), A650 nm CiB is the mean absorbance at 650 nm for the blank control with compound I (CiB), A650 nm E is the mean absorbance at 650 nm for the reaction control with DMSO (E) and A650 nm EB is the mean absorbance at 650 nm for the blank control with DMSO (EB). The errors were expressed as 2 standard deviations (SD), SD estimated as σ^n−1.

[2] = system: L. infantum amastigotes (intracellular, in J774.A1 macrophages); test: Viability assay for L. infantum amastigotes; assay type: cell-based; conditions: Leishmania infantum, J774.A1, 24 h, read-out: L. infantum amastigote viability [% at 20 μM]
Protocol: Viability assay for L. infantum amastigotes. L. infantum promastigotes from the reference strain MHOM/MA/67/ITMAP263, stably transfected with a vector encoding a red-shifted luciferase gene (RE9HLUC; Branchini et al.; Benítez et al.) were grown in fresh complete RPMI medium (RPMI basic medium containing 25 mM HEPES, 10% v/v iFBS, 100 U/mL penicillin, 100 μg/mL streptomycin and 15 μg/mL hygromycin B) at 28°C in sealed culture flasks. Metacyclic promastigotes were obtained by a negative selection procedure using peanut agglutinin and used to infect murine macrophages (cell line J774.A1) at a 1:10 ratio for macrophages (5×10^6 cells): parasites (5×10^7 cells). 200 μL of this suspension was added per well to a 96-well culture microplate, which was then incubated at 37°C for 24 h in a 5% CO2/95% air atmosphere incubator. […] The culture microplate was incubated in the CO2 incubator for additional 24 h. Next, the supernatant was removed and the microplate wells were washed with pre-warmed PBS (200 μL). […] All conditions were tested in triplicates and the percentage amastigote viability was calculated as described for infective T. b. brucei, with errors expressed as one SD, estimated as σ^n-1.
A macrophage cell density correction factor based on the incorporation of propidium iodide was calculated and applied to normalise amastigote viability related to host cell density in the well. For a detailed explanation of the protocol, see Benítez et al..

Sequence of trypanothione synthetase of L. infantum (LiTryS) (A4I2Z3 entry or part of it): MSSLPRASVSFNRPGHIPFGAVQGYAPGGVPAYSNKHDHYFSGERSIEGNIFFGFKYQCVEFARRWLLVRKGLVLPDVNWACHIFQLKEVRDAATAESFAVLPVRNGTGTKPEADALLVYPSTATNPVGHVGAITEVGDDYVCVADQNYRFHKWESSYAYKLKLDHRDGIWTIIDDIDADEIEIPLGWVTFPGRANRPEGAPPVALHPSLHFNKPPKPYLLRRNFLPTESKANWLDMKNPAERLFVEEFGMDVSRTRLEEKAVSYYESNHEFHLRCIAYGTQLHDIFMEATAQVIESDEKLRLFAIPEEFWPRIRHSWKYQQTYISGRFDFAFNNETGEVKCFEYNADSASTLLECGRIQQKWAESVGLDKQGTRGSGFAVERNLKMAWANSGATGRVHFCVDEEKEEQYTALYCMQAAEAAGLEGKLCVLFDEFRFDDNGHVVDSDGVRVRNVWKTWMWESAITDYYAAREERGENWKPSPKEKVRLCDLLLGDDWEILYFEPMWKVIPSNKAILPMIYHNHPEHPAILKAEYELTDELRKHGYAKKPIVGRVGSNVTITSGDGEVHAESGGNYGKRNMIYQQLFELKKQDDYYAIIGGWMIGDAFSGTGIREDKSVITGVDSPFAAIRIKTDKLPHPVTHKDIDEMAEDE

Row | Compound | activity at 30 µM [1] [%] | viability at 20 µM [2] [%]
1 | CC(C)(C)OC(=O)N1CCN(CCNC(=O)CN2C(=O)CCCc3ccccc32)CC1 [2b, tert-Butyl 4-{2-[2-(2-oxo-2,3,4,5-tetrahydro-1H-benzo[b]azepin-1-yl)acetamido]ethyl}piperazine-1-carboxylate] | 91.4 ± 3.1 | 89.5 ± 9.9
2 | CC(C)(C)OC(=O)NCCNC(=O)CN1C(=O)CCCc2ccccc21 [2c, tert-Butyl {2-[2-(2-oxo-2,3,4,5-tetrahydro-1H-benzo[b]azepin-1-yl)acetamido]ethyl}carbamate] | 96.7 ± 7.5 | 
3 | CC(C)(C)OC(=O)N1CCN(C(=O)CN2C(=O)CCCc3ccccc32)CC1 [2d, tert-Butyl 4-[2-(2-oxo-2,3,4,5-tetrahydro-1H-benzo[b]azepin-1-yl)acetyl]piperazine-1-carboxylate] | 108 ± 14.6 | 
4 | CN(CCNC(=O)CN1C(=O)CCCc2ccccc21)C(=O)OC(C)(C)C [2e, tert-Butyl methyl-{2-[2-(2-oxo-2,3,4,5-tetrahydro-1H-benzo[b]azepin-1-yl)acetamido]ethyl}carbamate] | 92.5 ± 37.2 | 
5 | CC(C)(C)OC(=O)NCCCCNC(=O)CN1C(=O)CCCc2ccccc21 [2f, tert-Butyl {4-[2-(2-oxo-2,3,4,5-tetrahydro-1H-benzo[b]azepin-1-yl)acetamido]butyl}carbamate] | 83.6 ± 8.7 | 
6 | CC(C)(C)OC(=O)NC1CCN(C(=O)CN2C(=O)CCCc3ccccc32)CC1 [2g, tert-Butyl {1-[2-(2-oxo-2,3,4,5-tetrahydro-1H-benzo[b]azepin-1-yl)acetyl]piperidine-4-yl}carbamate] | 93.3 ± 6.1 | 
7 | O=C(CN1C(=O)CCCc2ccccc21)N1CCOCC1 [2h, 1-(2-Morpholino-2-oxoethyl)-1,3,4,5-tetrahydro-2H-benzo[b]azepin-2-one] | 92.7 ± 9.2 | 
8 | O=C(CN1C(=O)CCCc2ccccc21)N1CCCCC1 [2i, 1-[2-Oxo-2-(piperidin-1-yl)ethyl]-1,3,4,5-tetrahydro-2H-benzo[b]azepin-2-one] | 89.4 ± 4.6 | 
9 | CCN(CC)C(=O)CN1C(=O)CCCc2ccccc21 [2k, N,N-Diethyl-2-(2-oxo-2,3,4,5-tetrahydro-1H-benzo[b]azepin-1-yl)acetamide] | 92.9 ± 6.4 | 
10 | NCCNC(=O)CN1C(=O)CCCc2ccccc21 [2p, N-(2-Aminoethyl)-2-(2-oxo-2,3,4,5-tetrahydro-1H-benzo[b]azepin-1-yl)acetamide hydrochloride] | 82.4 ± 9.5 | 
11 | CNCCNC(=O)CN1C(=O)CCCc2ccccc21 [2r, N-[2-(Methylamino)ethyl]-2-(2-oxo-2,3,4,5-tetrahydro-1H-benzo[b]azepin-1-yl)acetamide hydrochloride] | 88.9 ± 10.4 | 
12 | NCCCCNC(=O)CN1C(=O)CCCc2ccccc21 [2s, N-(4-Aminobutyl)-2-(2-oxo-2,3,4,5-tetrahydro-1H-benzo[b]azepin-1-yl)acetamide hydrochloride] | 104 ± 5.3 | 
13 | O=C(CN1C(=O)CCCc2ccccc21)NCCN1CCOCC1 [2t, N-(2-Morpholinoethyl)-2-(2-oxo-2,3,4,5-tetrahydro-1H-benzo[b]azepin-1-yl)acetamide hydrochloride] | 91 ± 3.9 | 71.2 ± 1.5
14 | CN1CCN(CCNC(=O)CN2C(=O)CCCc3ccccc32)CC1 [2u, N-[2-(4-Methylpiperazin-1-yl)ethyl]-2-(2-oxo-2,3,4,5-tetrahydro-1H-benzo[b]azepin-1-yl)acetamide dihydrochloride] | 106 ± 9.8 | 85 ± 10.6
15 | CN1CCN(C(=O)CN2C(=O)CCCc3ccccc32)CC1 [2v, 1-[2-(4-Methylpiperazin-1-yl)-2-oxoethyl]-1,3,4,5-tetrahydro-2H-benzo[b]azepin-2-one hydrochloride] | 98.2 ± 13.7 | 72.4 ± 0.3
16 | CC(C)(C)OC(=O)N1CCN(CCNC(=O)CN2C(=O)C(C)(C)CCc3ccccc32)CC1 [3b, tert-Butyl 4-{2-[2-(3,3-dimethyl-2-oxo-2,3,4,5-tetrahydro-1H-benzo[b]azepin-1-yl)acetamido]ethyl}piperazine-1-carboxylate] | 107 ± 12.6 | 94.8 ± 2.5
17 | CN(CCNC(=O)CN1C(=O)C(C)(C)CCc2ccccc21)C(=O)OC(C)(C)C [3c, tert-Butyl {2-[2-(3,3-dimethyl-2-oxo-2,3,4,5-tetrahydro-1H-benzo[b]azepin-1-yl)acetamido]ethyl}(methyl)carbamate] | 104 ± 7.1 | 
18 | CNCCNC(=O)CN1C(=O)C(C)(C)CCc2ccccc21 [3e, 2-(3,3-Dimethyl-2-oxo-2,3,4,5-tetrahydro-1H-benzo[b]azepin-1-yl)-N-[2-(methylamino)ethyl]acetamide hydrochloride] | 99.8 ± 7.1 | 
19 | CN(CCNC(=O)CN1C(=O)Cc2ccccc2-c2ccccc21)C(=O)OC(C)(C)C [4c, tert-Butyl N-methyl-{2-[2-(6-oxo-6,7-dihydro-5H-dibenzo[b,d]azepin-5-yl)acetamido]ethyl}carbamate] | 87.6 ± 4.6 | 
20 | CO/N=C1\CCC(=O)N(CC(=O)NCCN2CCN(C(=O)OC(C)(C)C)CC2)c2ccccc21 [5b, tert-Butyl (E/Z)-4-(2-{2-[5-(methoxyimino)-2-oxo-2,3,4,5-tetrahydro-1H-benzo[b]azepin-1-yl]acetamido}ethyl)piperazine-1-carboxylate] | 97.8 ± 13.3 | 93 ± 9.3
21 | O=C(O)CN1C(=O)Cc2ccccc2-c2ccccc21 [compound 19, 2-(6-Oxo-6,7-dihydro-5H-dibenzo[b,d]azepin-5-yl)acetic acid] | 97.8 ± 6.1 | 
22 | CO/N=C1\CCC(=O)Nc2ccccc21 [compound 20, (E)-5-methoxyimino-1,3,4,5-tetrahydro-2H-benzo[b]azepin-2-one] | 102 ± 2.4 | 
23 | CO/N=C1\CCC(=O)N(CC(=O)OC(C)(C)C)c2ccccc21 [compound 21, tert-Butyl (E/Z)-2-(5-(methoxyimino)-2-oxo-2,3,4,5-tetrahydro-1H-benzo[b]azepin-1-yl)acetate] | 92.4 ± 10.3 | 
24 | CO/N=C1\CCC(=O)N(CC(=O)O)c2ccccc21 [compound 22, (E/Z)-2-(5-(Methoxyimino)-2-oxo-2,3,4,5-tetrahydro-1H-benzo[b]azepin-1-yl)acetic acid] | 96.7 ± 5.2 | 
